In ChEMBL document CHEMBL4130359, “Indazole-based ligands for estrogen-related receptor α as potential anti-diabetic agents” (Eur J Med Chem, 2017):
Calls of active or inactive are those of the source. No cut-off for these calls is given here.

Key:
Rattus norvegicus [1] = assay: Decrease in fed plasma insulin level in Zucker rat sub-chronic fa/fa prediabetic model assessed as change in plasma insulin level at 10 mg/kg, po qd for 4 days measured on day 5 relative to control; type: functional; set-up: scale not given: the % may be the effect or the level left
[2] = biological target: Peroxisome proliferator-activated receptor gamma (Homo sapiens, UniProt P37231); assay: Inhibition of fluormone PPARgamma Green binding to recombinant N-terminal GST-tagged human PPARgamma LBD by fluorescence polarization assay
[3] = biological target: Oxysterols receptor LXR-alpha (Homo sapiens, UniProt Q13133); assay: Antagonist activity at recombinant GST-tagged human LXRalpha LBD assessed as inhibition of TO901317-induced fluorescein-labeled coactivator peptide recruitment preincubated with enzyme followed by coactivator addition by LanthaScreen TR-FRET assay
[4] = biological target: Retinoic acid receptor RXR-beta (Homo sapiens, UniProt P28702); assay: Antagonist activity at recombinant GST-tagged human RXRbeta LBD assessed as inhibition of all-trans-retinoic acid-induced fluorescein-labeled coactivator peptide recruitment preincubated with enzyme followed by coactivator addition by LanthaScreen TR-FRET assay
[5] = Clearance in CD-1 mouse at 5 mg/kg, iv by LC-MS analysis; type: ADME, organism-based; details: in vivo
Rattus norvegicus [6] = assay: Antidiabetic activity in Zucker rat sub-chronic fa/fa prediabetic model assessed as fasting blood insulin level at 3 mg/kg, po qd for 31 days measured on day 29 post dose (reference value: 8.5 +/- 1.4 ug/L); type: functional
[7] = AUC (0 to 24 hrs) in Zucker rat sub-chronic fa/fa prediabetic model at 3 mg/kg, po qd for 26 days measured on day 26 post last dose; type: ADME, organism-based; set-up: time < 24 hr, dose 3 mg/kg, route oral; details: in vivo
Rattus norvegicus [8] = assay: Toxicity in Zucker rat sub-chronic fa/fa prediabetic model assessed as food intake at 1 mg/kg, po qd for 29 days measured on day 1 to 29 during compound dosing (reference value: 969 +/- 18 g); type: organism-based; details: in vivo, 696 h
Rattus norvegicus [9] = assay: Toxicity in Zucker rat sub-chronic fa/fa prediabetic model assessed as epididymal white adipose tissue weight at 1 mg/kg, po qd for 31 days measured on day 32 (reference value: 13.9 +/- 0.6 g); type: organism-based; details: in vivo, 744 h
Rattus norvegicus [10] = assay: Toxicity in Zucker rat sub-chronic fa/fa prediabetic model assessed as liver weight at 50 mg/kg, po qd for 31 days measured on day 32 (reference value: 28 +/- 1.6 g); type: organism-based; details: in vivo, 744 h
Rattus norvegicus [11] = assay: Toxicity in Zucker rat sub-chronic fa/fa prediabetic model assessed as heart weight at 10 mg/kg, po qd for 31 days measured on day 32 (reference value: 1.19 +/- 0.04 g); type: organism-based; details: in vivo, 744 h
Rattus norvegicus [12] = assay: Toxicity in Zucker rat sub-chronic fa/fa prediabetic model assessed as serum triglyceride level at 50 mg/kg, po qd for 31 days measured on day 32 (reference value: 1382 +/- 268 mg/dl); type: organism-based; details: in vivo, 744 h
[13] = Drug uptake in plasma of Zucker rat sub-chronic fa/fa prediabetic model at 12.5 mg/kg, po qd for 11 days; type: ADME, organism-based
Rattus norvegicus [14] = assay: Antidiabetic activity in Zucker rat sub-chronic fa/fa prediabetic model assessed as increase in serum adiponectin level at 50 mg/kg, po qd for 4 days by ELISA relative to control; type: functional
Rattus norvegicus [15] = type: functional, Zucker
[16] = Cmax in […] chronic ob/ob model at 10 mg/kg, po qd for 28 days measured on day 28 post last dose; type: ADME, organism-based; set-up: dose 10 mg/kg, route oral; details: in vivo
[17] = AUC (0 to 24 hrs) in […] model at 3 mg/kg, po qd measured on day 1 post dose; type: ADME, organism-based; set-up: dose 3 mg/kg, time < 24 hr, route oral; details: in vivo
Rattus norvegicus [18] = assay: Toxicity in […] chronic ob/ob model assessed as food intake at 3 mg/kg, po qd for 28 days measured on day 1 to 28 during compound dosing (reference value: 170.6 +/- 3 g); type: organism-based; details: in vivo, 672 h
Rattus norvegicus [19] = assay: Toxicity in […] chronic ob/ob model assessed as brown adipose tissue weight at 10 mg/kg, po qd for 31 days measured on day 32 (reference value: 0.59 +/- 0.05 g); type: organism-based; details: in vivo, 744 h
Rattus norvegicus [20] = assay: Toxicity in […] model assessed as serum cholesterol level at 3 mg/kg, po qd for 31 days measured on day 32 (reference value: 195 +/- 5.5 mg/dl); type: organism-based; details: in vivo, 744 h
Rattus norvegicus [21] = assay: Toxicity in […] model assessed as serum ALT level at 3 mg/kg, po qd for 31 days measured on day 32 (reference value: 127 +/- 9 U/L); type: organism-based; details: in vivo, 744 h
Rattus norvegicus [22] = assay: Increase in ADIPOQ mRNA expression in epididymal white adipose tissue of Zucker rat sub-chronic fa/fa prediabetic model at 10 mg/kg, po qd for 15 days by RT-PCR method; type: functional, organism-based
Rattus norvegicus [23] = assay: Effect on ATP5F1 gene expression in epididymal white adipose tissue of Zucker rat sub-chronic fa/fa prediabetic model at 10 mg/kg, po qd for 15 days by microarray analysis relative to control; type: functional
Rattus norvegicus [24] = assay: Effect on NDUFB10 gene expression in epididymal white adipose tissue of Zucker rat sub-chronic fa/fa prediabetic model at 10 mg/kg, po qd for 15 days by microarray analysis relative to control; type: functional
Rattus norvegicus [25] = assay: Effect on ECHS1 gene expression in epididymal white adipose tissue of Zucker rat sub-chronic fa/fa prediabetic model at 10 mg/kg, po qd for 15 days by microarray analysis relative to control; type: functional
Rattus norvegicus [26] = assay: Effect on PIK3R6 gene expression in epididymal white adipose tissue of Zucker rat sub-chronic fa/fa prediabetic model at 10 mg/kg, po qd for 15 days by microarray analysis relative to control; type: functional
Rattus norvegicus [27] = assay: Effect on GBE1 gene expression in epididymal white adipose tissue of Zucker rat sub-chronic fa/fa prediabetic model at 10 mg/kg, po qd for 15 days by microarray analysis relative to control; type: functional
Rattus norvegicus [28] = assay: Effect on AGPAT3 gene expression in epididymal white adipose tissue of Zucker rat sub-chronic fa/fa prediabetic model at 10 mg/kg, po qd for 15 days by microarray analysis relative to control; type: functional
Rattus norvegicus [29] = assay: Effect on UCP3 gene expression in epididymal white adipose tissue of Zucker rat sub-chronic fa/fa prediabetic model at 10 mg/kg, po qd for 15 days by microarray analysis relative to control; type: functional
Rattus norvegicus [30] = assay: Effect on MSMO1 gene expression in epididymal white adipose tissue of Zucker rat sub-chronic fa/fa prediabetic model at 10 mg/kg, po qd for 15 days by microarray analysis relative to control; type: functional
Rattus norvegicus [31] = assay: Effect on HSP90B1 gene expression in epididymal white adipose tissue of Zucker rat sub-chronic fa/fa prediabetic model at 10 mg/kg, po qd for 15 days by microarray analysis relative to control; type: functional
Rattus norvegicus [32] = assay: Effect on CD3D gene expression in epididymal white adipose tissue of Zucker rat sub-chronic fa/fa prediabetic model at 10 mg/kg, po qd for 15 days by microarray analysis relative to control; type: functional
Rattus norvegicus [33] = assay: Effect on NFATC4 gene expression in epididymal white adipose tissue of Zucker rat sub-chronic fa/fa prediabetic model at 10 mg/kg, po qd for 15 days by microarray analysis relative to control; type: functional

Oxysterols receptor LXR-alpha, sequence (Q13133 whole entry, the tested form may be a part): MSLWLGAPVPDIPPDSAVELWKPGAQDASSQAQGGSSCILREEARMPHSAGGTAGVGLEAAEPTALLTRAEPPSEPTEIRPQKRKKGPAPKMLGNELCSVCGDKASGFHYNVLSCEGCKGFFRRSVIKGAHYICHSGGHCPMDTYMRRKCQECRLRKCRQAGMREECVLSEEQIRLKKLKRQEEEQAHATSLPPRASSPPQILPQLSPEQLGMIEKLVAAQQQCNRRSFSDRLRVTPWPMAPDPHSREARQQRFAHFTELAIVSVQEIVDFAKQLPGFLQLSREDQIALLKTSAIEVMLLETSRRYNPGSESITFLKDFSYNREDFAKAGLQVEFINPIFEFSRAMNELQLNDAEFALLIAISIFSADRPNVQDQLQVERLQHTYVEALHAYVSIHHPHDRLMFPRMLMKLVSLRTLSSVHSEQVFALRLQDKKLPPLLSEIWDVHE
Peroxisome proliferator-activated receptor gamma, sequence (P37231 whole entry, the tested form may be a part): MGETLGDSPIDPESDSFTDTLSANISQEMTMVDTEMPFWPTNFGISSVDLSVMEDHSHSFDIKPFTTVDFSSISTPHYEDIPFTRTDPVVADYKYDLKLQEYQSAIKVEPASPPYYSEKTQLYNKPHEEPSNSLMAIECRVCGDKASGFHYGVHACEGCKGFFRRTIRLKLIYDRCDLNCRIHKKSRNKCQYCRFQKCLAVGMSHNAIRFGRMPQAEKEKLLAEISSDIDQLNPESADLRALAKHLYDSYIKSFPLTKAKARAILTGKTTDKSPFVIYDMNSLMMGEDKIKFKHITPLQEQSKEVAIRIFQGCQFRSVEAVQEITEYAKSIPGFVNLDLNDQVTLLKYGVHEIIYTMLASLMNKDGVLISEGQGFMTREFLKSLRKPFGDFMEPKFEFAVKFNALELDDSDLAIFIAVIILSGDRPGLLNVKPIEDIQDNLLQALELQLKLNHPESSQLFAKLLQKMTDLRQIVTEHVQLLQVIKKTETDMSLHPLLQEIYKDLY
Retinoic acid receptor RXR-beta, sequence (P28702 whole entry, the tested form may be a part): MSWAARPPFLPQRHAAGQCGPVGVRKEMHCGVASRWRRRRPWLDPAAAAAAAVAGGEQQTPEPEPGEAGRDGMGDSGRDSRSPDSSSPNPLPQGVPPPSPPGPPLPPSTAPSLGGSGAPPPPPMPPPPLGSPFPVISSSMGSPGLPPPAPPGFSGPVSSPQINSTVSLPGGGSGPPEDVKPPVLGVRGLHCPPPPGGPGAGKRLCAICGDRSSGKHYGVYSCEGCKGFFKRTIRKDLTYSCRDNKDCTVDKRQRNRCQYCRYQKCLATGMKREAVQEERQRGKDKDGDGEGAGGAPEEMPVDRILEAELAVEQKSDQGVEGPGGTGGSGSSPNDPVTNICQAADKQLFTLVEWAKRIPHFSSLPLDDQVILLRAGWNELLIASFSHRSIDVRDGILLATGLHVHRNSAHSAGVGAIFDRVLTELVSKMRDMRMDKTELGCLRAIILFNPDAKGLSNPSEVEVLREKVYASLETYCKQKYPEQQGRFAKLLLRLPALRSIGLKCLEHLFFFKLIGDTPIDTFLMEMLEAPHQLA

CN1CC[C@@H](N2C(=O)S/C(=C\c3ccc4c(cnn4Cc4ccc(Cl)cc4C(F)(F)F)c3)C2=O)[C@H](F)C1
Activity (Rattus norvegicus [1]): -67%
IC50 [2]: > 10 µM
IC50 [3]: > 10 µM
IC50 [4]: > 10 µM
clearance [5]: 10 mL/min/kg
Activity (Rattus norvegicus [6]): 4.8 µg/L
AUC at 24 h [7]: 10800 ng·h/mL
Activity (Rattus norvegicus [8]): 975 g
Activity (Rattus norvegicus [9]): 16.9 g
Activity (Rattus norvegicus [10]): 17.8 g
Activity (Rattus norvegicus [11]): 1.11 g
Activity (Rattus norvegicus [12]): 198 mg/dL
concentration at 264 h [13]: 814 ng/mL
fold change (FC) (Rattus norvegicus [14]): 1.9
Activity (Rattus norvegicus [15]): 17.3%
Cmax [16]: 454 ng/mL
AUC(0-t) at 24 h [17]: 1400 ng·h/mL
Activity (Rattus norvegicus [18]): 159.1 g
Activity (Rattus norvegicus [19]): 0.99 g
Activity (Rattus norvegicus [20]): 171 mg/dL
Activity (Rattus norvegicus [21]): 172 U/L
Activity (Rattus norvegicus [22]): Active
fold change (FC) (Rattus norvegicus [23]): 1.257
fold change (FC) (Rattus norvegicus [24]): 1.237
fold change (FC) (Rattus norvegicus [25]): 1.35
fold change (FC) (Rattus norvegicus [26]): -1.276
fold change (FC) (Rattus norvegicus [27]): 1.79
fold change (FC) (Rattus norvegicus [28]): -1.213
fold change (FC) (Rattus norvegicus [29]): 2.305
fold change (FC) (Rattus norvegicus [30]): -1.271
fold change (FC) (Rattus norvegicus [31]): -1.258
fold change (FC) (Rattus norvegicus [32]): -1.256
fold change (FC) (Rattus norvegicus [33]): 1.383
